From US20230310634A1, “ANTI-HUMAN VISTA ANTIBODIES AND USE THEREOF” (IMMUNEXT, INC., priority 2020, published 2023)
Entries after “also recorded” stand apart in the source; their conditions may differ. Counter-ions that a name gives are not always drawn.

System: LPS stimulated human PBMCs
Test: In vitro potency of steroid payloads in LPS stimulated human PBMCs (IL-1β, IL-6 ELISA)
Type: cell-based
Settings: for IL-1β and IL-6 production / IL-1β production / potency relative to the other compounds of the experiment: 1 ng/mL LPS, 24 hr
[1] = Experiment 1, 1000-1 nM, n=1 donor
[2] = Experiment 3, 1000-0.2 nM, n=2 donors
[3] = Experiment 5, 1000-0.5 nM, n=1 donor
[4] = Experiment 6, 1000-0.16 nM, n=1
[5] = Experiment 2, 1000-1 nM, n=1 donor

| SMILES | steroid potency as free payloads in LPS-activated human PBMCS (conclusions) | IL-1β and IL-6 production [1] | IL-1β production [5] | also measured |
| --- | --- | --- | --- | --- |
| C[C@]12C=CC(=O)C=C1CC[C@@H]1[C@@H]2[C@@H](O)C[C@@]2(C)[C@H]1C[C@H]1O[C@H](C34CC(Cc5cccc(N)c5)(C3)C4)O[C@]12C(=O)CO [INX-SM-54, (6aR,6bS,7S,8aS,8bS,10S,11aR,12aS,12bS)-10-(3-(3-aminobenzyl)bicyclo[1.1.1]pentan-1-yl)-7-hydroxy-8b-(2-hydroxyacetyl)-6a,8a-dimethyl-1,2,6a,6b,7,8,8a,8b,11a,12,12a,12b-dodecahydro-4H-naphtho[2′,1′:4,5]indeno[1,2-d][1,3]dioxol-4-one] | did not show potency | did not show inhibition | – | – |
| C[C@@]12CCC3=CC(=O)C=C[C@]3(C)[C@H]1[C@@H](O)C[C@@]1(C)[C@H]2C[C@H]2O[C@@H](c3ccc(CC45C6C7C4C4C5C6C74N)cc3)O[C@]21C(=O)CO (stereo partly drawn) [INX-SM-9, (6aR,6bS,7S,8aS,8bS,10R,11aR,12aS,12bS)-10-(4-((4-aminocuban-1-yl)methyl)phenyl)-7-hydroxy-8b-(2-hydroxyacetyl)-6a,8a-dimethyl-1,2,6a,6b,7,8,8a,8b,11a,12,12a,12b-dodecahydro-4H-naphtho[2′,1′:4,5]indeno[1,2-d][1,3]dioxol-4-one] | varying degrees of dose dependent steroid potency | – | – | IL-1β production [2]: dose dependent inhibition |
| C[C@]12C=CC(=O)C=C1CC[C@@H]1[C@@H]2[C@@H](O)C[C@@]2(C)[C@H]1C[C@H]1O[C@@H](c3ccc(CC4(N)COC4)cc3)O[C@]12C(=O)CO [INX-SM-33, (6aR,6bS,7S,8aS,8bS,10R,11aR,12aS,12bS)-10-(4-((3-aminooxetan-3-yl)methyl)phenyl)-7-hydroxy-8b-(2-hydroxyacetyl)-6a,8a-dimethyl-1,2,6a,6b,7,8,8a,8b,11a,12,12a,12b-dodeca hydro-4H-naphtho[2′,1′:4,5]indeno[1,2-d][1,3]dioxol-4-one] | varying degrees of dose dependent steroid potency; also recorded: lowest potency among the R stereoisomers | – | – | potency relative to the other compounds of the experiment: least potent compound among these compounds tested; IL-1β and IL-6 production [3]: dose dependent inhibition; also recorded: modest inhibition |
| C[C@]12C=CC(=O)C=C1[C@@H](F)C[C@H]1[C@@H]3C[C@H]4O[C@H](c5ccc(CC67CC(N)(C6)C7)cc5)O[C@@]4(C(=O)CO)[C@@]3(C)C[C@H](O)[C@@]12F [INX-SM-74, (2S,6aS,6bR,7S,8aS,8bS,10S,11aR,12aS,12bS)-10-(4-((3-aminobicyclo[1.1.1]pentan-1-yl)methyl)phenyl)-2,6b-difluoro-7-hydroxy-8b-(2-hydroxyacetyl)-6a,8a-dimethyl-1,2,6a,6b,7,8,8a,8b,11a,12,12a,12b-dodecahydro-4H-naphtho[2′,1′:4,5]indeno[1,2-d][1,3]dioxol-4-one] | varying degrees of dose dependent steroid potency; also recorded: moderate potency | – | – | impact of halogenation of the steroid ring on potency (Experiment 6, 1000-0.16 nM, compared with INX-SM-3): dose dependent potency |
| C[C@]12C=CC(=O)C=C1CC[C@@H]1[C@@H]2[C@@H](O)C[C@@]2(C)[C@H]1C[C@H]1O[C@@H](c3ccc(Cc4ncc(N)s4)cc3)O[C@]12C(=O)CO [INX-SM-7, (6aR,6bS,7S,8aS,8bS,10R,11aR,12aS,12bS)-10-(4-((5-aminothiazol-2-yl)methyl)phenyl)-7-hydroxy-8b-(2-hydroxyacetyl)-6a,8a-dimethyl-1,2,6a,6b,7,8,8a,8b,11a,12,12a,12b-dodecahydro-4H-naphtho[2′,1′:4,5]indeno[1,2-d][1,3]dioxol-4-one] | varying degrees of dose dependent steroid potency | – | – | IL-1β production [4]: dose-dependent inhibition |
| C[C@]12C=CC(=O)C=C1CC[C@@H]1[C@@H]2[C@@H](O)C[C@@]2(C)[C@H]1C[C@H]1O[C@@H](c3ccc(CC4COC5(CNC5)C4)cc3)O[C@]12C(=O)CO (stereo partly drawn) [INX-SM-31, (6aR,6bS,7S,8aS,8bS,11aR,12aS,12bS)-10-(4-((5-oxa-2-azaspiro[3.4]octan-7-yl)methyl)phenyl)-7-hydroxy-8b-(2-hydroxyacetyl)-6a,8a-dimethyl-1,2,6a,6b,7,8,8a,8b,11a,12,12a,12b-dodecahydro-4H-naphtho[2′,1′:4,5]indeno[1,2-d][1,3]dioxol-4-one] | varying degrees of dose dependent steroid potency; also recorded: lowest potency among the R stereoisomers | – | – | potency relative to the other compounds of the experiment: least potent compound among these compounds tested; IL-1β production [2]: dose dependent inhibition |
| C[C@]12C=CC(=O)C=C1CC[C@@H]1[C@@H]2[C@@H](O)C[C@@]2(C)[C@H]1C[C@H]1O[C@@H](c3ccc(Cc4csc(N)n4)cc3)O[C@]12C(=O)CO [INX-SM-2, (6aR,6bS,7S,8aS,8bS,10R,11aR,12aS,12bS)-10-(4-((2-aminothiazol-4-yl)methyl)phenyl)-7-hydroxy-8b-(2-hydroxyacetyl)-6a,8a-dimethyl-1,2,6a,6b,7,8,8a,8b,11a,12,12a,12b-dodecahydro-4H-naphtho[2′,1′:4,5]indeno[1,2-d][1,3]dioxol-4-one AcOH salt] | varying degrees of dose dependent steroid potency | – | – | IL-1β production [4]: dose-dependent inhibition |
| C[C@]12C=CC(=O)C=C1CC[C@@H]1[C@@H]2[C@@H](O)C[C@@]2(C)[C@H]1C[C@H]1O[C@H](c3cnc(Cc4cccc(N)c4)s3)O[C@]12C(=O)CO [INX-SM-56, (6aR,6bS,7S, 8aS,8bS,10S,11aR,12aS,12bS)-10-(2-(3-aminobenzyl)thiazol-5-yl)-7-hydroxy-8b-(2-hydroxyacetyl)-6a,8a-dimethyl-1,2,6a,6b,7,8,8a,8b, 11a,12,12a,12b-dodecahydro-4H-naphtho[2′,1′:4,5]indeno[1,2-d][1,3]dioxol-4-one] | did not show potency | – | did not show inhibition | – |
| C[C@]12C=CC(=O)C=C1CC[C@@H]1[C@@H]2[C@@H](O)C[C@@]2(C)[C@H]1C[C@H]1O[C@@H](C34CC(Cc5cccc(N)c5)(C3)C4)O[C@]12C(=O)CO [INX-SM-4, (6aR,6bS,7S,8aS,8bS,10R,11aR,12aS,12bS)-10-(3-(3-aminobenzyl)bicyclo[1.1.1]pentan-1-yl)-7-hydroxy-8b-(2-hydroxyacetyl)-6a,8a-dimethyl-1,2,6a,6b,7,8,8a,8b,11a,12,12a,12b-dodecahydro-4H-naphtho[2′,1′:4,5]indeno[1,2-d][1,3]dioxol-4-one] | varying degrees of dose dependent steroid potency | inhibit both IL-1β and IL-6 production | show inhibition in IL-1β production | – |
| C[C@]12C=CC(=O)C=C1CC[C@@H]1[C@@H]2[C@@H](O)C[C@@]2(C)[C@H]1C[C@H]1O[C@@H](c3ccc(CC45CCC(N)(CC4)CC5)cc3)O[C@]12C(=O)CO [INX-SM-10, (6aR,6bS,7S, 8aS,8bS,11aR,12aS,12bS)-10-(4-((4-aminobicyclo [2.2.2]octan-1-yl)methyl)phenyl)-7-hydroxy-8b-(2-hydroxyacetyl)-6a,8a-dimethyl-1,2,6a,6b,7,8,8a,8b,11a,12,12a,12b-dodecahydro-4H-naphtho[2′,1′:4,5]indeno[1,2-d][1,3]dioxol-4-one] | varying degrees of dose dependent steroid potency | – | – | IL-1β and IL-6 production [3]: dose dependent inhibition; also recorded: robust inhibition |
| C[C@]12C=CC(=O)C=C1CC[C@@H]1[C@@H]2[C@@H](O)C[C@@]2(C)[C@H]1C[C@H]1O[C@H](c3ccc(CC45CC(N)(C4)C5)cc3)O[C@]12C(=O)CO [INX-SM-53, (6aR,6bS,7S,8aS,8bS,10S,11aR,12aS,12bS)-10-(4-((3-aminobicyclo[1.1.1]pentan-1-yl)methyl)phenyl)-7-hydroxy-8b-(2-hydroxyacetyl)-6a,8a-dimethyl-1,2,6a,6b,7,8,8a,8b, 11a,12,12a,12b-dodecahydro-4H-naphtho[2′,1′:4,5]indeno[1,2-d][1,3]dioxol-4-one] | did not show potency | did not show inhibition | – | – |
| C[C@]12C=CC(=O)C=C1CC[C@@H]1[C@@H]2[C@@H](O)C[C@@]2(C)[C@H]1C[C@H]1O[C@@H](c3ccc(Cc4cnc(N)s4)cc3)O[C@]12C(=O)CO [INX-SM-1, (6aR,6bS,7S,8aS,8bS,10R,11aR,12aS,12bS)-10-(4-((2-aminothiazol-5-yl)methyl)phenyl)-7-hydroxy-8b-(2-hydroxyacetyl)-6a,8a-dimethyl-1,2,6a,6b,7,8,8a,8b,11a,12,12a,12b-dodecahydro-4H-naphtho[2′,1′:4,5]indeno[1,2-d][1,3]dioxol-4-one AcOH salt] | varying degrees of dose dependent steroid potency | inhibit both IL-1β and IL-6 production | show inhibition in IL-1β production | – |
| C[C@]12C=CC(=O)C=C1CC[C@@H]1[C@@H]2[C@@H](O)C[C@@]2(C)[C@H]1C[C@H]1O[C@@H](c3cnc(Cc4cccc(N)c4)s3)O[C@]12C(=O)CO [INX-SM-6, (6aR,6bS,7S, 8aS,8bS,10R,11aR,12aS,12bS)-10-(2-(3-aminobenzyl)thiazol-5-yl)-7-hydroxy-8b-(2-hydroxyacetyl)-6a,8a-dimethyl-1,2,6a,6b,7,8,8a,8b, 11a,12,12a,12b-dodecahydro-4H-naphtho[2′,1′:4,5]indeno[1,2-d][1,3]dioxol-4-one] | varying degrees of dose dependent steroid potency | – | show inhibition in IL-1β production | – |
